Measurements from PubChem BioAssay (NCI).
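Results reflect a 48-hour exposure of cells in 96-well plates to compound at five concentrations. Here, GI50 denotes the concentration required for 50% inhibition of growth. TGI: total growth inhibition.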

Tests used:
Experiment in all cases: DTP human tumour cell line panel, 48 h
NCI-H23 lung = system: NCI-H23 lung
ACHN renal = system: ACHN renal
TK-10 renal = system: TK-10 renal
A549 NSCLC = system: A549 NSCLC
DU-145 prostate = system: DU-145 prostate
UACC-62 melanoma = system: UACC-62 melanoma
U251 CNS = system: U251 CNS
MCF7 breast = system: MCF7 breast
A498 renal = system: A498 renal
MOLT-4 leukemia = system: MOLT-4 leukemia
MDA-MB-231 breast = system: MDA-MB-231 breast
RXF 393 renal = system: RXF 393 renal
K-562 leukemia = system: K-562 leukemia
HCT-116 colon = system: HCT-116 colon
IGROV1 ovarian = system: IGROV1 ovarian
NCI-H460 lung = system: NCI-H460 lung
786-0 renal = system: 786-0 renal
OVCAR-3 ovarian = system: OVCAR-3 ovarian
HCT-15 colon = system: HCT-15 colon
SK-MEL-28 melanoma = system: SK-MEL-28 melanoma
NCI-H226 lung = system: NCI-H226 lung
SK-OV-3 ovarian = system: SK-OV-3 ovarian
BT-549 breast = system: BT-549 breast
SNB-19 CNS = system: SNB-19 CNS
HOP-62 NSCLC = system: HOP-62 NSCLC
KM12 colon = system: KM12 colon
SR leukemia = system: SR leukemia
RPMI-8226 leukemia = system: RPMI-8226 leukemia
CCRF-CEM leukemia = system: CCRF-CEM leukemia
EKVX NSCLC = system: EKVX NSCLC
HCC-2998 colon = system: HCC-2998 colon
LOX IMVI melanoma = system: LOX IMVI melanoma
SF-539 CNS = system: SF-539 CNS
HL-60(TB) leukemia = system: HL-60(TB) leukemia
COLO 205 colon = system: COLO 205 colon
SW-620 colon = system: SW-620 colon
M14 melanoma = system: M14 melanoma
MALME-3M melanoma = system: MALME-3M melanoma
SN12C renal = system: SN12C renal
HT29 colon = system: HT29 colon
SF-295 CNS = system: SF-295 CNS
OVCAR-4 ovarian = system: OVCAR-4 ovarian
OVCAR-8 ovarian = system: OVCAR-8 ovarian
T-47D breast = system: T-47D breast
MDA-MB-435 = system: MDA-MB-435
SF-268 CNS = system: SF-268 CNS
NCI/ADR-RES ovarian = system: NCI/ADR-RES ovarian
SNB-75 CNS = system: SNB-75 CNS
NCI-H522 lung = system: NCI-H522 lung
UACC-257 melanoma = system: UACC-257 melanoma
SK-MEL-2 melanoma = system: SK-MEL-2 melanoma
HS 578T breast = system: HS 578T breast
OVCAR-5 ovarian = system: OVCAR-5 ovarian
CAKI-1 renal = system: CAKI-1 renal
SK-MEL-5 melanoma = system: SK-MEL-5 melanoma
UO-31 renal = system: UO-31 renal
HOP-92 NSCLC = system: HOP-92 NSCLC
PC-3 prostate = system: PC-3 prostate

## COc1cc(C(=O)/C=C/c2c(C)n([O-])c3ccc(C(F)(F)F)cc3[n+]2=O)cc(OC)c1OC
NCI-H23 lung
  GI50: 3.8 µM
  TGI: 15.1 µM
ACHN renal
  GI50: 1.49 µM
  TGI: 3.82 µM
TK-10 renal
  GI50: 1.41 µM
  TGI: 2.82 µM
A549 NSCLC
  GI50: 19.8 µM
  TGI: > 93.3 µM
DU-145 prostate
  GI50: 4.11 µM
  TGI: 14.3 µM
UACC-62 melanoma
  GI50: 3.62 µM
  TGI: 13.8 µM
U251 CNS
  GI50: 8.83 µM
  TGI: 24.1 µM
MCF7 breast
  GI50: 4.26 µM
  TGI: 17.3 µM
A498 renal
  GI50: 14.5 µM
  TGI: 51.7 µM
MOLT-4 leukemia
  GI50: 1.75 µM
  TGI: 5.11 µM
MDA-MB-231 breast
  GI50: 8.54 µM
  TGI: > 79.3 µM
RXF 393 renal
  GI50: 1.44 µM
  TGI: 2.86 µM
K-562 leukemia
  GI50: 1.65 µM
  TGI: 5.85 µM
HCT-116 colon
  GI50: 0.83 µM
  TGI: 2.51 µM
IGROV1 ovarian
  GI50: 7.54 µM
  TGI: 48.4 µM
NCI-H460 lung
  GI50: 10.7 µM
  TGI: 29.1 µM
786-0 renal
  GI50: 1.96 µM
  TGI: 4.31 µM
OVCAR-3 ovarian
  GI50: 1.37 µM
  TGI: 3.07 µM
HCT-15 colon
  GI50: 3.55 µM
  TGI: 24.2 µM
SK-MEL-28 melanoma
  GI50: 7.62 µM
  TGI: 23.6 µM
NCI-H226 lung
  GI50: 15.1 µM
  TGI: > 57.7 µM
SK-OV-3 ovarian
  GI50: 27.1 µM
  TGI: > 100 µM
BT-549 breast
  GI50: 8.34 µM
  TGI: 25.6 µM
SNB-19 CNS
  GI50: 36.1 µM
  TGI: > 100 µM
HOP-62 NSCLC
  GI50: 25.2 µM
  TGI: > 100 µM
KM12 colon
  GI50: 13.5 µM
  TGI: 34.3 µM
SR leukemia
  GI50: 2.67 µM
  TGI: > 100 µM
RPMI-8226 leukemia
  GI50: 5.23 µM
  TGI: 48.9 µM
CCRF-CEM leukemia
  GI50: 0.564 µM
  TGI: > 100 µM
EKVX NSCLC
  GI50: 21.4 µM
  TGI: > 100 µM
HCC-2998 colon
  GI50: 15.5 µM
  TGI: 35.7 µM
LOX IMVI melanoma
  GI50: 0.77 µM
  TGI: 2.66 µM
SF-539 CNS
  GI50: 3.7 µM
  TGI: 15 µM
HL-60(TB) leukemia
  GI50: 2.92 µM
  TGI: 7.89 µM
COLO 205 colon
  GI50: 1.43 µM
  TGI: 2.88 µM
SW-620 colon
  GI50: 0.68 µM
  TGI: 2.04 µM
M14 melanoma
  GI50: 2.42 µM
  TGI: 8.46 µM
MALME-3M melanoma
  GI50: 1.74 µM
  TGI: 4.19 µM
SN12C renal
  GI50: 6.89 µM
  TGI: > 100 µM
HT29 colon
  GI50: 1.69 µM
  TGI: 3.99 µM
SF-295 CNS
  GI50: 26.2 µM
  TGI: > 90.7 µM
OVCAR-4 ovarian
  GI50: 7.1 µM
  TGI: > 100 µM
OVCAR-8 ovarian
  GI50: 2.99 µM
  TGI: > 31.1 µM
T-47D breast
  GI50: 2.15 µM
  TGI: 7.83 µM
MDA-MB-435
  GI50: 3.15 µM
  TGI: 15.8 µM
SF-268 CNS
  GI50: 12.8 µM
  TGI: 37.4 µM
NCI/ADR-RES ovarian
  GI50: 3.54 µM
  TGI: 97.7 µM
SNB-75 CNS
  GI50: 10.9 µM
  TGI: 24.6 µM
NCI-H522 lung
  GI50: 0.232 µM
  TGI: 0.784 µM
UACC-257 melanoma
  GI50: 1.78 µM
  TGI: 3.94 µM
SK-MEL-2 melanoma
  GI50: 4 µM
  TGI: 13.5 µM
HS 578T breast
  GI50: 7.55 µM
  TGI: > 77.8 µM
OVCAR-5 ovarian
  GI50: 15.2 µM
  TGI: > 83.4 µM
CAKI-1 renal
  GI50: 3.32 µM
  TGI: > 38.1 µM
SK-MEL-5 melanoma
  GI50: 17.6 µM
  TGI: > 57.3 µM
UO-31 renal
  GI50: 1.45 µM
  TGI: 3.51 µM
HOP-92 NSCLC
  GI50: 3.04 µM
  TGI: 21.3 µM
PC-3 prostate
  GI50: 6.41 µM
  TGI: > 100 µM

## CC(=O)Nc1cccc(C#Cc2cncnc2Nc2ccc(OCc3cccc(F)c3)c(Cl)c2)n1
NCI-H23 lung
  GI50: > 25 µM
  TGI: > 25 µM
ACHN renal
  GI50: 2.87 µM
  TGI: > 25 µM
TK-10 renal
  GI50: 0.412 µM
  TGI: > 17.6 µM
A549 NSCLC
  GI50: 6.81 µM
  TGI: > 25 µM
DU-145 prostate
  GI50: 8.62 µM
  TGI: > 25 µM
UACC-62 melanoma
  GI50: 24.4 µM
  TGI: > 25 µM
U251 CNS
  GI50: 7.14 µM
  TGI: > 23.4 µM
MCF7 breast
  GI50: > 25 µM
  TGI: > 25 µM
A498 renal
  GI50: 1.22 µM
  TGI: > 25 µM
MOLT-4 leukemia
  GI50: > 25 µM
  TGI: > 25 µM
MDA-MB-231 breast
  GI50: 6.04 µM
  TGI: > 25 µM
RXF 393 renal
  GI50: 20.8 µM
  TGI: > 25 µM
K-562 leukemia
  GI50: > 25 µM
  TGI: > 25 µM
HCT-116 colon
  GI50: 11.6 µM
  TGI: > 25 µM
IGROV1 ovarian
  GI50: 4.2 µM
  TGI: > 25 µM
NCI-H460 lung
  GI50: 11.9 µM
  TGI: > 25 µM
786-0 renal
  GI50: > 22.5 µM
  TGI: > 25 µM
OVCAR-3 ovarian
  GI50: > 21.6 µM
  TGI: > 25 µM
HCT-15 colon
  GI50: > 25 µM
  TGI: > 25 µM
SK-MEL-28 melanoma
  GI50: 14.8 µM
  TGI: > 25 µM
NCI-H226 lung
  GI50: > 17.8 µM
  TGI: > 25 µM
SK-OV-3 ovarian
  GI50: 1.06 µM
  TGI: > 25 µM
BT-549 breast
  GI50: > 25 µM
  TGI: > 25 µM
SNB-19 CNS
  GI50: > 21.7 µM
  TGI: > 25 µM
HOP-62 NSCLC
  GI50: 10.3 µM
  TGI: > 25 µM
KM12 colon
  GI50: > 25 µM
  TGI: > 25 µM
SR leukemia
  GI50: > 25 µM
  TGI: > 25 µM
RPMI-8226 leukemia
  GI50: > 25 µM
  TGI: > 25 µM
CCRF-CEM leukemia
  GI50: > 25 µM
  TGI: > 25 µM
EKVX NSCLC
  GI50: 0.475 µM
  TGI: > 25 µM
HCC-2998 colon
  GI50: > 25 µM
  TGI: > 25 µM
LOX IMVI melanoma
  GI50: > 18.5 µM
  TGI: > 25 µM
SF-539 CNS
  GI50: > 23.3 µM
  TGI: > 25 µM
HL-60(TB) leukemia
  GI50: > 25 µM
  TGI: > 25 µM
COLO 205 colon
  GI50: > 22.2 µM
  TGI: > 25 µM
SW-620 colon
  GI50: 23.1 µM
  TGI: > 25 µM
M14 melanoma
  GI50: 16.1 µM
  TGI: > 25 µM
MALME-3M melanoma
  GI50: 9.55 µM
  TGI: > 25 µM
SN12C renal
  GI50: > 25 µM
  TGI: > 25 µM
HT29 colon
  GI50: 17.6 µM
  TGI: > 25 µM
SF-295 CNS
  GI50: 13.7 µM
  TGI: > 25 µM
OVCAR-4 ovarian
  GI50: > 22.7 µM
  TGI: > 25 µM
OVCAR-8 ovarian
  GI50: 15.4 µM
  TGI: > 25 µM
T-47D breast
  GI50: 2.57 µM
  TGI: > 25 µM
MDA-MB-435
  GI50: > 20.4 µM
  TGI: > 25 µM
SF-268 CNS
  GI50: > 18.8 µM
  TGI: > 25 µM
NCI/ADR-RES ovarian
  GI50: 20.7 µM
  TGI: > 25 µM
SNB-75 CNS
  GI50: 11.9 µM
  TGI: > 25 µM
NCI-H522 lung
  GI50: 8.25 µM
  TGI: > 25 µM
UACC-257 melanoma
  GI50: > 21.5 µM
  TGI: > 25 µM
SK-MEL-2 melanoma
  GI50: 10.4 µM
  TGI: > 25 µM
HS 578T breast
  GI50: 24.9 µM
  TGI: > 25 µM
OVCAR-5 ovarian
  GI50: > 23.4 µM
  TGI: > 25 µM
CAKI-1 renal
  GI50: 2.28 µM
  TGI: > 25 µM
SK-MEL-5 melanoma
  GI50: > 18.8 µM
  TGI: > 25 µM
UO-31 renal
  GI50: 22.5 µM
  TGI: > 25 µM
HOP-92 NSCLC
  GI50: 3.61 µM
  TGI: 18.2 µM
PC-3 prostate
  GI50: 9.4 µM
  TGI: > 25 µM
